Data published in patent US6337333B1, “Method of treating autoimmune disease with fludarabine-5′-monophosphate” (priority 1992, dated 2002).

How the values were obtained:
Format in all cases: cell-based, human
IgM production = assay: Cumulative IgM production in SAC + rIL-2 cultures, EIA; conditions: for accumulation of IgM: 5 and 10 day SAC rIL-2 cultures, preliminary studies
Procedure: In FIG. 5, peripheral blood mononuclear cells (PBMC) enriched for B lymphocytes (BC89; 60% CD19, 59% CD20, 8% CD3) were continuously cultured at 5×10^5/ml and stimulated with Staphylococcus aureus Cowan I (SAC) plus interleukin 2 (IL-2) (50 U/ml) in the presence of 1.0 μg/ml of FLP. Recombinant IL-6 was added to 50 U/ml. After the culture period, the supernatants were harvested and assayed for huIgM by EIA. Results shown are from 1 representative experiment of 5 different experiments conducted with 5 different sources of leukocyte preparations. […]
(§1) In FIG. 7, peripheral blood mononuclear cells (PBMC) enriched for B lymphocytes (BC92; 35% CD19, 33% CD20, 35% CD3) were continuously cultured for 5 days in either medium alone, Staphylococcus aureus Cowan I (SAC) plus interleukin 2 (IL-2) (50 U/ml), or SAC plus IL-2 in the presence of various concentrations of FLP or 2-chlorodeoxyadenosine (2CDA). After 5 days of culture, the supernatants were harvested and serial dilutions of supernatant assayed for huIgM and huIgG by EIA. The presence of IgM rheumatoid factor (IgM-RF) was determined by EIA using the Vectastain Biotin-Streptavidin amplification system. Results are reported as O.D. 405 nm units. […] The results shown are from 1 representative experiment of 4 separate experiments conducted with 4 different sources of packed leukocytes.
(§2) In FIG. 8, peripheral blood mononuclear cells (PBMC) enriched for B lymphocytes (BC92, 35% CD19, 33% CD20, 35% CD3) were continuously cultured for 10 days in either medium alone, Staphylococcus aureus Cowan I (SAC) plus interleukin 2 (IL-2) (50 U/ml), or SAC plus IL-2 in the presence of various concentrations of FLP or 2CDA. At the end of the culture period, the supernatants were harvested and serial dilutions assayed for huIgM, huIgG, and IgM-RF by EIA. The cells were phenotyped by flowcytometry. Results are reported as O.D. 405 nm units. […] The results shown are from 1 experiment representative of 3 separate experiments conducted with 3 different sources of packed leukocytes.
(§3) In FIG. 9, peripheral blood mononuclear cells (PBMC) (BC93; 22% CD19, 20% CD20, 78% CD3) were continuously cultured for 5 days in either medium alone, Staphylococcus aureus Cowan I (SAC) plus interleukin 2 (IL-2) (50 U/ml) or 20% T cell conditioned medium (Tcm) in the presence of various concentrations of FLP. At the end of the 5 day culture period, the supernatants were harvested and serial dilutions assayed for huIgM, huIgG, and IgM-RF by EIA. The results are reported as O.D. 405 nm units. […] The results shown are from one representative experiment.
Immulon-2 (Dynatek Laboratories, #011-010-3450, Chantilly, Va.) flat-bottom 96 well microtiter plates were coated with 100 μl/well of a 2 μg/ml solution of goat F(ab′)2 anti-HuIgM (μ chain, CALTAG #H15100, So. San Francisco, Calif.) or goat F(ab′)2 anti-HuIgG (Fc sp., CALTAG #H10100) in 0.1 M sodium carbonate buffer, pH 9.6 overnight at 4° C. Uncoated wells were incubated with the carbonate buffer alone. The plates were rinsed and then incubated with 100 μl/well of 0.1% BSA/PBS for 1 hr at RT.

IgM-RF production = assay: Cumulative IgM-RF production in SAC + rIL-2 cultures, EIA; conditions: for effect on measurable IgM-RF: FIG. 7C; for accumulation of IgM-RF: 5 and 10 day SAC rIL-2 cultures, preliminary studies
From the text: as §1, §2, §3
The procedure to determine amounts of IgM-RF in culture supernatants was a modification of the methodology described above. Briefly, plates were coated with 100 μl/well of a 2.4 μg/ml solution of human IgG Fc fragments (Jackson ImmunoResearch, Chrompure #009-000-008) in 0.1 M sodium carbonate, pH 9.6 overnight at 4° C. The wells were blocked with 0.1% BSA/PBS for 1 hr at RT, and then serial dilutions of culture supernatant were cultured at 100 μl/well for 18-48 hrs at RT. A Vectastain Human IgM ABC-AP kit (Vector Laboratories, #AK-5009, Burlingame, Calif.) was used to develop the plates. […] Results are reported as O.D. units at 405 nm.

[1] = test system: CD20, CD20/CD5 and CD3/CD5 lymphocyte subsets; assay: Flowcytometric phenotype of lymphocyte subsets in SAC + rIL-2 cultures; conditions: for CD20/CD5 subpopulations: end of 5 and 10 day culture periods, drug dose dependent, data not shown; for effect on relative percent of CD20, CD20/CD5 and CD3/CD5 staining cells: 5 day SAC + rIL-2 culture, FIG. 4; for CD20, % Viable (% Total) / CD20/5, % Viable (% Total): 5 day culture, 1.0 μg/ml FLP + SAC/rIL-2 (50 μ/ml)
Procedure: Approximately 5×10^5−1×10^6 PBMC, enriched T, or B lymphocytes were cultured in 1 ml of S-10 in Falcon 10×75 mm capped polypropylene tissue culture tubes (Falcon #2063) for the appropriate times at 37° C. in a humidified 5% CO2/air atmosphere. Recombinant IL-2 (rIL-2) was used at 50 U/ml and SAC was at a final concentration of {fraction (1/60,000)}. The mitogens phytohemagglutinin (PHA-P) (Pharmacia, #27-3707-01, Uppsala, Sweden) and pokeweed mitogen (PWM, Pharmacia, #27-3702-01) were used at 5 μg/ml and 10 μg/ml, respectively.
Cells were washed once in citrate buffered saline (C-BSS) and 10^5-10^6 cells per sample were aliquoted for staining. For direct immunofluorescence, […] of either FITC- or PC-conjugated CD-specific mouse monoclonal antibody (Becton Dickinson, San Jose, Calif.) were added to cells in […] of C-BSS and incubated at RT for 30 min. The samples were then washed once in 2 ml C-BSS, resuspended in 0.5 ml C-BSS and acquired on a B/D FACScan Flowcytometer using either Simulset or Lysis II software. During analysis of data files, lymphocytes were discriminated from monocytes and dead cells on the basis of their forward light scatter (FCS) properties and high positivity with anti-CD45 and anti-CD14 (leucogate).
In FIG. 4, at the end of the culture period, the cells were washed, fixed with 1% formalin/PBS, and stained with mouse monoclonals anti-CD20 (PE), anti-CD3 (PE), and anti-CD5 (FITC). The stained samples were analyzed on a FACScan flowcytometer using LYSYS II software. Viable cells were gated and results are expressed as percent of total viable events acquired.
Experiments were conducted that sampled supernatants and cells at 5 and 10 days culture with various amounts of drug.

[2] = one microgram per ml, 5 days, FIG. 7A

Nc1nc(Cl)nc2c1ncn2[C@H]1C[C@H](O)[C@@H](CO)O1 [2CDA, 2-chlorodeoxyadenosine]
accumulation of IgM (IgM production): dose-related decrease | effect on IgM production (IgM production; [2]): block | effect on IgM accumulation (IgM production; one microgram per ml, 10 days): block the accumulation | effect on measurable IgM-RF (IgM-RF production; 1 μg/ml, 5 days): less effect | effect on IgM-RF accumulation compared with FLP (IgM-RF production; 1 μg/ml, 10 days): characteristics similar to FLP | accumulation of IgM-RF (IgM-RF production): dose-related decrease | CD20/CD5 subpopulations [1]: decreased

Nc1nc(F)nc2c1ncn2[C@@H]1O[C@H](COP(=O)(O)O)[C@@H](O)[C@@H]1O [FLP, fludarabine-5′-monophosphate]
effect on IgM accumulation (IgM production; 0.1 μg/ml, 10 days, FIG. 8A): minimal effect | reduction of IgM accumulation (IgM production; 1 μg, 10 days, FIG. 8A): 80% | detectable IgM in supernatants (IgM production; 1.0 μg/ml, 5 day cultures, FIG. 5): background levels | reduction of IgM accumulation (IgM production; 5 μg, 10 days, FIG. 8A): 98% | effect on IgM accumulation (IgM production; 5 μg/ml, 5 days, FIG. 7A): block any measurable IgM accumulation | effect on IgM accumulation (IgM production; 0.1 and 0.5 μg/ml, PBMC, 5 days, cultures containing rIL-2 or 20% T cell conditioned medium, FIG. 9A): reduce | accumulation of IgM (IgM production): dose-related decrease | effect on IgM production (IgM production; one hundred nanograms per ml, 5 days, FIG. 7A): minimal effect | effect on IgM production (IgM production; [2]): intermediate effect | IgM-RF production (IgM-RF production; 0.1 μg/ml, 10 days, FIG. 8C): 50 % of control | effect on measurable IgM-RF (IgM-RF production; 1 μg/ml, 5 days): reduce the measurable IgM-RF | level of measurable IgM-RF (IgM-RF production; 5 μg, 10 days, FIG. 8C): below the medium control levels | effect on measurable IgM-RF (IgM-RF production; 5 μg/ml, 5 days): reduce the measurable IgM-RF | effect on IgM-RF accumulation (IgM-RF production; 0.1 and 0.5 μg/ml, PBMC, 5 days, cultures containing rIL-2 or 20% T cell conditioned medium, FIG. 9C): reduce | accumulation of IgM-RF (IgM-RF production): dose-related decrease | effect on relative percent of CD20, CD20/CD5 and CD3/CD5 staining cells ([1]; 0.1 μg/ml): minimal effect | effect on relative percent of CD20, CD20/CD5 and CD3/CD5 staining cells ([1]; 0.5 μg to 5.0 μg/ml): dose-dependent decrease | CD20, % Viable (% Total) ([1]; IL-6 +): 60% | CD20/5, % Viable (% Total) ([1]; IL-6 +): 1.9% | CD20, % Viable (% Total) ([1]; IL-6 −): 64% | CD20/5, % Viable (% Total) ([1]; IL-6 −): 1.8% | CD20/CD5 subpopulations [1]: decreased
